The nature of series [1]: Solubility of molecular precursor in organic solvents. The conditions noted are these: for Solubility: THF: solvent THF; for Solubility: benzene: solvent benzene; for Solubility: benzene / Solubility: toluene: 'heat'; for Solubility: diethyl ether: solvent diethyl ether; for Solubility: pentane: solvent pentane; for Solubility: toluene: solvent toluene; for Solubility: CHCl3: solvent CHCl3. Type of series: physicochemical.

A short description of series [2]: Thermogravimetric analysis (TGA): transition of molecular precursor into material. Type of series: physicochemical. The conditions noted are these: for TGA transition ending (completed) temperature / TGA transition midpoint: transition of precursor into material; for TGA yield for the transition: residue at end of transition; for TGA yield at 400° C.: at about 400° C. The method, then:
Thermogravimetric analysis (TGA) was performed using a Q50 Thermogravimetric Analyzer (TA Instruments, New Castle, Del.). NMR data were recorded using a Varian 400 MHz spectrometer.

In the case of Cu—(S^tBu)3In^tBu [Example 4], in series [1], the “Solubility: THF” value is recorded as “ss”, the “Solubility: benzene” value is “ss heat”, the “Solubility: diethyl ether” value was “nil” and the “Solubility: pentane” value is “nil”. The “Solubility: toluene” value in series [1] is listed as “s heat”. Also, in series [2], the “TGA transition ending (completed) temperature” value (from here on “TGA transition ending”) was “about 240 °C” and the “TGA yield for the transition” value is reported as 48.1 % (w/w).
In the case of Cu—(Se^tBu)3In^nBu [Example 3], in series [1], the “Solubility: CHCl3” value is “vs”, the “Solubility: THF” value is listed as “vs”, the “Solubility: benzene” value was “vs” and the “Solubility: diethyl ether” value is recorded as “vs”. The “Solubility: toluene” value in series [1] is listed as “vs”. In addition, in series [2], the “TGA transition ending” value was found to be 196 °C, the TGA transition midpoint stood at 174 °C and the “TGA yield for the transition” value is given as 48.5 % (w/w).
Consider Ag—(Se^tBu)3In^iPr [Example 28], for which, in series [2], the “TGA transition ending” value was “about 205 °C” and the “TGA yield for the transition” value was 56.2 % (w/w).
As for Cu—(Se^tBu)3Ga^tBu [Example 5], in series [1], the “Solubility: benzene” value was “ss heat”, the “Solubility: diethyl ether” value is “nil”, the “Solubility: pentane” value is “nil” and the “Solubility: toluene” value is “s heat”. Further, in series [2], the “TGA transition ending” value was “about 210 °C” and the “TGA yield for the transition” value is reported as 48.3 % (w/w).
Consider Ag—(Se^tBu)3Ga^nBu [Example 25], for which, in series [2], the “TGA transition ending” value was “about 210 °C”, the “TGA yield at 400° C.” value is listed as 47.7 % (w/w) and the “TGA yield for the transition” value is on record as 53.9 % (w/w).
As for Ag—(Se^tBu)3In^sBu [Example 26], in series [2], the “TGA transition ending” value was “about 195 °C” and the “TGA yield for the transition” value was 54.9 % (w/w).
In the case of Cu—(S^tBu)3In^nBu [Example 2], in series [1], the “Solubility: CHCl3” value is listed as “vs”, the “Solubility: THF” value is “vs”, the “Solubility: benzene” value is listed as “vs” and the “Solubility: diethyl ether” value is recorded as “vs”. Also, the “Solubility: toluene” value in series [1] is on record as “vs”. In series [2], the “TGA transition ending” value amounted to 248 °C, the TGA transition midpoint is 235 °C and the “TGA yield for the transition” value is 50.4 % (w/w).
Regarding Cu—(S^tBu)2(S^tBu)In^tBu [Example 9], in series [2], the “TGA transition ending” value worked out at 295 °C, the TGA transition midpoint was found to be 235 °C and the “TGA yield for the transition” value is given as 47.9 % (w/w).
For Cu—(S^tBu)3Ga^iPr [Example 12], in series [2], the “TGA transition ending” value came out at 220 °C and the “TGA yield for the transition” value is 46.0 % (w/w).
For the substance Ag—(Se^tBu)3In^nBu [Example 24], in series [2], the “TGA transition ending” value was “about 205 °C”, the “TGA yield at 400° C.” value is 52.5 % (w/w) and the “TGA yield for the transition” value is 54.6 % (w/w).
On to Cu—(Se^tBu)3In^sBu [Example 14], for which, in series [2], the “TGA transition ending” value stood at 204 °C, the TGA transition midpoint was determined as 191 °C and the “TGA yield for the transition” value is listed as 52.3 % (w/w).
Regarding Cu—(S^tBu)3In^iPr [Example 1], in series [1], the “Solubility: benzene” value is recorded as “s heat”, the “Solubility: diethyl ether” value is “ss” and the “Solubility: pentane” value is “nil”. For the same substance, in series [2], the “TGA transition ending” value came to 227 °C, the TGA transition midpoint is 220 °C and the “TGA yield for the transition” value is 50.4 % (w/w).
For Ag—(Se^tBu)3Ga^sBu [Example 27], in series [2], the “TGA transition ending” value was “about 195 °C”, the “TGA yield at 400° C.” value is 45.1 % (w/w) and the “TGA yield for the transition” value is 50.4 % (w/w).
Take Cu—(Se^tBu)3In^iPr [Example 8]: in series [1], the “Solubility: benzene” value was “heat”, the “Solubility: diethyl ether” value is reported as “ss” and the “Solubility: pentane” value was “nil”. Further, in series [2], the “TGA transition ending” value is 199 °C, the TGA transition midpoint was 192 °C and the “TGA yield for the transition” value is 52.1 % (w/w).
Cu—(Se^tBu)3In^tBu [Example 7]: in series [1], the “Solubility: THF” value was “ss”, the “Solubility: benzene” value was “ss heat”, the “Solubility: diethyl ether” value is listed as “nil” and the “Solubility: pentane” value is recorded as “nil”. Also, the “Solubility: toluene” value in series [1] is reported as “heat”. Also, in series [2], the “TGA transition ending” value is “about 192 °C” and the “TGA yield for the transition” value is listed as 53.1 % (w/w).

The values above are taken from patent US8715537B2, “Molecular precursor methods and materials for optoelectronics” (Precursor Energetics, Inc., priority 2009, dated 2014).
